US11168078B2, “Sulfoximine, sulfonimidamide, sulfondiimine and diimidosulfonamide compounds as inhibitors of indoleamine 2,3-dioxygenase” (Shanghai Fochon Pharmaceutical Co., Ltd., priority 2016, dated 2021)

Key:
IDO [1] = target: T1, IDO (Homo sapiens, UniProt P14902); assay: IDO Cell-Based LC/MS Assay; conditions: Hela cells, 100 ng/mL recombinant human interferon-gamma, 20 hours, LC/MS readout
T1 construct: endogenous in cells; host or cells: HeLa cells stimulated with recombinant human interferon-gamma
T1 sequence (P14902 whole entry): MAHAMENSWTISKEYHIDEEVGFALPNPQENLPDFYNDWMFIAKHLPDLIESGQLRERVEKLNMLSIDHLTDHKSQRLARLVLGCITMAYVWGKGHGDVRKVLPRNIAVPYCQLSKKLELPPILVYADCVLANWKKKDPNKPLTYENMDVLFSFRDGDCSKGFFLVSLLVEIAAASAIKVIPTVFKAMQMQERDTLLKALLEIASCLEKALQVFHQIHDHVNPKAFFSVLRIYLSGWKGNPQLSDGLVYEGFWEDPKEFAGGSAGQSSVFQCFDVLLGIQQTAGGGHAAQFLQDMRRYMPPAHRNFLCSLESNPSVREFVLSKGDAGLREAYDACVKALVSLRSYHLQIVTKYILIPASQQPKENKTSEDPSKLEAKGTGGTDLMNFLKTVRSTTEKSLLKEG
Text: IDO Cell-Based LC/MS Assay
Materials: RPMI 1640 (phenol red free) (Invitrogen Cat. No. 11835030), Fetal Bovine Serum (Invitrogen Cat. No. 10099141), Penicillin-Streptomycin (Invitrogen Gibco Cat. No. 15140-122), recombinant human interferon-gamma (R&D system, Cat. No. 285-IF-100), 5% (w/v) trichloroacetic acid (Alfa Aesar Cat. No. All 156), DMSO (Sigma, Cat. No. D2650), 96 wells_compound plate (Axygen, Cat. No. WIPP02280), 96 wells_assay plate (Greiner, Cat. No. 655090)
The concentrations of test compounds varied from 5 μM to 0.76 nM with 3-fold dilution, 9 points, in duplicates.
Hela cells were seeded at 40,000 cells per well with RPMI/phenol red free media containing 10% FBS in a 96-well tissue culture plate. After adding compound to cells, 100 ng/mL of recombinant human interferon-gamma was added to activate IDO signaling. The cells were incubated for 20 hours in 37° C. incubator with 5% CO2. Compound treatment was stopped by adding 5% trichloroacetic acid. Subsequently, the cell plate was further incubated at 50° C. for 30 minutes. After precipitation, the supernatant was collected and measured by triple quadrupole mass spectrometer (AB Sciex 4000), coupled with HPLC Shimadzu EC 20 AD and autosampler CTC PAL. Curves are fit by XLFIT5 as % inhibition vs. log [compound concentration] using a 4 parameters logistic model 205.
(§1) Select compounds prepared as described above were assayed according to the biological procedures described herein.

Rat PK = assay type: in vivo; conditions: po, male SD rats, 5 mg/kg p.o., suspended in 0.5% methylcellulose in water, plasma
Method: Each test compounds was suspended in 0.5% methylcellulose in water.
Grouping male SD rats was administered with test compound at a dose of 5 mg/kg by oral. After administering, blood samples were collected at time points of 0.50, 1.0, 2.0, 4.0, 6.0, 8.0 and 24.0 h. Standard curve was plotted based on concentrations of the samples in a suitable range, and the concentration of test compounds in plasma samples were determined by using LC-MS/MS. Pharmacokinetic parameters were calculated according to plasma concentration-time curve by Phoenix WinNonLin 6.1 software.

IDO [2] = target: T1, IDO; assay: IDO Cell-Based NEK Green Assay (NFK Green, N-formyl kynurenine level); conditions: Hela cells, 1 mM L-Tryptophan, 100 ng/mL recombinant human interferon-gamma, 2 days, NFK Green fluorescence
Method: IDO Cell-Based NEK Green Assay
Materials: RPMI 1640 (phenol red free) (Invitrogen Cat. No. 11835030), Fetal Bovine Serum (Invitrogen Cat. No. 10099141), Penicillin-Streptomycin (Invitrogen Gibco Cat. No. 15140-122), Cellular assay kit (NTRC, Cat. No. NTRC-GSCell-1K), DMSO (Sigma, Cat. No. D2650), 384 wells_compound plate (Greiner, Cat. No. 781280), 384 wells_assay plate (Greiner, Cat. No. 781091)
The concentrations of test compounds varied from 5 μM to 0.76 nM with 3-fold dilution, 10 points, in duplicates.
Hela cells were seeded at 8,000 cells per well with RPMI/phenol red free media containing 10% FBS in a 384-well tissue culture plate. Mixture of compounds and 1 mM L-Tryptophan were added to cells; and then the recombinant human interferon-gamma was added at the final concentration of 100 ng/mL to activate IDO signaling. The cells were incubated for 2 days in 37° C. incubator with 5% CO2. After that, NFK Green was used to detect the N-formyl kynurenine level by following the commercial kit instruction. The fluorescent signal was measured by Envision plate Reader (excitation, 400/25; emission, 510/20). Curves are fit by XLFIT5 as % inhibition vs. log [compound concentration] using a 4 parameters logistic model 205.
as §1

O=S1(=NCCNc2nonc2/C(=N/O)Nc2ccc(F)c(Br)c2)CCCC1 [Example 5, (Z)—N-(3-bromo-4-fluorophenyl)-N′-hydroxy-4-((2-((1-oxidotetrahydro-1λ^6-thiophen-1-ylidene)amino)ethyl)amino)-1,2,5-oxadiazole-3-carboximidamide]
IC50 (IDO [1]): 195 nM

CS(=N)(=O)NCCNc1nonc1/C(=N/O)Nc1ccc(F)c(C#N)c1 (stereo not drawn) [Example 13, (Z)—N-(3-cyano-4-fluorophenyl)-N′-hydroxy-4-((2-(methylsulfonoimidamido)-ethyl)amino)-1,2,5-oxadiazole-3-carboximidamide]
IC50 (IDO [1]): 311 nM

CS(=N)(=O)NCCCNc1nonc1C(=NO)Nc1ccc(F)c(Br)c1 (stereo not drawn) [Example 8, (Z)—N-(3-bromo-4-fluorophenyl)-N′-hydroxy-4-((3-(methylsulfonoimidamido)propyl)amino)-1,2,5-oxadiazole-3-carboximidamide]
IC50 (IDO [1]): 18.6 nM

CC(CNS(C)(=N)=O)Nc1nonc1/C(=N/O)Nc1ccc(F)c(Br)c1 (stereo not drawn) [Example 10, (Z)—N-(3-bromo-4-fluorophenyl)-N′-hydroxy-4-((1-(methylsulfonoimidamido)propan-2-yl)amino)-1,2,5-oxadiazole-3-carboximidamide]
IC50 (IDO [1]): 244 nM

CS(C)(=O)=NCCNc1nonc1/C(=N/O)Nc1ccc(F)c(Br)c1 [Example 1, (Z)—N-(3-bromo-4-fluorophenyl)-4-((2-((dimethyl(oxo)-λ^6-sulfanylidene)amino)ethyl)amino)-N′-hydroxy-1,2,5-oxadiazole-3-carboximidamide]
IC50 (IDO [1]): 54 nM
AUC(0-inf) (Rat PK): 4030 ng·h/mL
AUC(0-t) (Rat PK): 3840 ng·h/mL
Cmax (Rat PK): 1500 ng/mL
half-life (Rat PK): 3.83 h

CS(=N)(=O)NCCNc1nonc1/C(=N/O)Nc1cccc(C(F)(F)F)c1 (stereo not drawn) [Example 15, (Z)—N′-hydroxy-4-((2-(methylsulfonoamidimidamido)ethyl)amino)-N-(3-(trifluoromethyl)phenyl)-1,2,5-oxadiazole-3-carboximidamide]
IC50 (IDO [1]): 54.3 nM

CN=S(C)(=O)NCCNc1nonc1C(=NO)Nc1ccc(F)c(Br)c1 (stereo not drawn) [Example 11, (Z)—N-(3-bromo-4-fluorophenyl)-N′-hydroxy-4-((2-(N′-methylmethylsulfonoamidimidamido)ethyl)amino)-1,2,5-oxadiazole-3-carboximidamide]
IC50 (IDO [1]): 40 nM

CCS(=N)(=O)NCCNc1nonc1/C(=N/O)Nc1cccc(C(F)(F)F)c1 (stereo not drawn) [Example 16, (Z)-4-((2-(ethylsulfonoimidamido)ethyl)amino)-N′-hydroxy-N-(3-(trifluoromethyl)phenyl)-1,2,5-oxadiazole-3-carboximidamide]
IC50 (IDO [1]): 298 nM

CCS(=O)(CC)=NCCNc1nonc1/C(=N/O)Nc1ccc(F)c(Br)c1 [Example 2, (Z)—N-(3-bromo-4-fluorophenyl)-4-((2-((diethyl(oxo)-λ^6-sulfanylidene)amino)ethyl)amino)-N′-hydroxy-1,2,5-oxadiazole-3-carboximidamide]
IC50 (IDO [1]): 270 nM

CS(=N)(=O)NCCNc1nonc1/C(=N/O)Nc1ccc(F)c(C(F)(F)F)c1 (stereo not drawn) [Example 14, (Z)—N-(4-fluoro-3-(trifluoromethyl)phenyl)-N′-hydroxy-4-((2-(methylsulfonoamidimidamido)ethyl)amino)-1,2,5-oxadiazole-3-carboximidamide]
IC50 (IDO [1]): 20.1 nM

NS(=O)(=O)NCCNc1nonc1C(=NO)Nc1ccc(F)c(Br)c1 [Reference Compound 1, (Z)—N-(3-bromo-4-fluorophenyl)-N′-hydroxy-4-((2-(sulfamoylamino)ethyl)amino)-1,2,5-oxadiazole-3-carboximidamide, reference compound]
AUC(0-inf) (Rat PK): 924 ng·h/mL
AUC(0-t) (Rat PK): 880 ng·h/mL
Cmax (Rat PK): 169 ng/mL
half-life (Rat PK): 2.48 h

O=S1(=NCCNc2nonc2/C(=N/O)Nc2ccc(F)c(Br)c2)CCOCC1 [Example 3, (Z)—N-(3-bromo-4-fluorophenyl)-N′-hydroxy-4-((2-((4-oxido-1,4λ^6-oxathian-4-ylidene)amino)ethyl)amino)-1,2,5-oxadiazole-3-carboximidamide]
IC50 (IDO [1]): 153 nM

CC(CNc1nonc1/C(=N/O)Nc1ccc(F)c(Br)c1)NS(C)(=N)=O (stereo not drawn) [Example 9, (Z)—N-(3-bromo-4-fluorophenyl)-N′-hydroxy-4-((2-(methylsulfonoimidamido)propyl)amino)-1,2,5-oxadiazole-3-carboximidamide]
IC50 (IDO [1]): 123 nM

CS(=N)(=O)NCCNc1nonc1/C(=N/O)Nc1ccc(F)c(Cl)c1 (stereo not drawn) [Example 12, (Z)—N-(3-chloro-4-fluorophenyl)-N′-hydroxy-4-((2-(methylsulfonoimidamido)-ethyl)amino)-1,2,5-oxadiazole-3-carboximidamide]
IC50 (IDO [1]): 12.3 nM

CCS(=N)(=O)NCCNc1nonc1C(=NO)Nc1ccc(F)c(Br)c1 (stereo not drawn) [Example 7, (Z)—N-(3-bromo-4-fluorophenyl)-4-((2-(ethylsulfonoimidamido)ethyl)amino)-N′-hydroxy-1,2,5-oxadiazole-3-carboximidamide]
IC50 (IDO [1]): 6.6 nM
AUC(0-inf) (Rat PK): 1450 ng·h/mL
AUC(0-t) (Rat PK): 1440 ng·h/mL
Cmax (Rat PK): 496 ng/mL
half-life (Rat PK): 3.47 h

CS(C)(=O)=NCCNc1nonc1/C(=N/O)Nc1ccc(F)c(Cl)c1 [Example 28, (Z)-N-(3-chloro-4-fluorophenyl)-4-((2-((dimethyl(oxo)-λ^6-sulfanylidene)amino)ethyl)amino)-N′-hydroxy-1,2,5-oxadiazole-3-carboximidamide]
IC50 (IDO [2]): 14.5 nM
AUC(0-inf) (Rat PK): 1120 ng·h/mL
AUC(0-t) (Rat PK): 1100 ng·h/mL
Cmax (Rat PK): 469 ng/mL
half-life (Rat PK): 1.19 h

O=S1(=NCCNc2nonc2/C(=N/O)Nc2ccc(F)c(Br)c2)CCCCC1 [Example 4, (Z)—N-(3-bromo-4-fluorophenyl)-N′-hydroxy-4-((2-((1-oxidotetrahydro-2H-1λ^6-thiopyran-1-ylidene)amino)ethyl)amino)-1,2,5-oxadiazole-3-carboximidamide]
IC50 (IDO [1]): 477 nM

CS(=N)(=O)NCCNc1nonc1C(=NO)Nc1ccc(F)c(Br)c1 (stereo not drawn) [Example 6, (Z)—N-(3-bromo-4-fluorophenyl)-N′-hydroxy-4-((2-(methylsulfonoimidamido)ethyl)amino)-1,2,5-oxadiazole-3-carboximidamide]
IC50 (IDO [1]): 63.7 nM
